Details of data set [1]: species or system rats. The conditions noted are these: Wistar, rat, in vivo. As to the method: Ampicillin concentrations in lung tissue and serum were measured for the two treatment groups in Example XV by a bioassay method. In this method, 60 μl of lung tissue homogenate, or serum obtained from the rats at various points after dosing is placed on a sterile disk. The desk is them placed on an agar plate covered with S. pneumoniae and incubated for 24 hr. […] The no-growth zones were quantitated, and concentrations of antibiotic were calculated based on a standard curve.

In another data set the test system is Streptococcus pneumoniae. In words: Acute pneumonia model, survival after antibiotic treatment. Type of data set: in vivo, Male Wistar rats. The conditions noted are these: rats inoculated intratracheally with 10^9 cfu S. pneumoniae; 10 mg ampicillin intramuscular one day after inoculation. The text has this:
Male Wistar rats […] were inoculated intratracheally with 10^9 colony forming units of Streptococcus pneumoniae. The model is an acute pneumonia model with 100% of untreated control animals dying within 4 days of inoculation.

Data set [2] can be described thus: Surfactant adsorption/spreading at the air/water interface. Format: physicochemical. The text has this: Stabilized dispersions formed according to the present invention provide for enhanced surfactant spreading at the pulmonary air/water interface. In this regard, the equilibrium surface tension of dimyristoylphosphatidylcholine is ca. 22 mN/m. […] The slow adsorption for liposomes is due to the slow molecular diffusion of DMPC through the water phase. […] This rapid spreading and reduction of surface tension is indicative of what would occur upon contacting the perforated microstructures with a wetted pulmonary membrane.

Another data set concerns serum glucose. Put plainly: Serum glucose levels after LDI or IM insulin administration. Format: in vivo. The conditions noted are these: fasting rabbits. As to the method: In the case of LDI administration, rabbits were anesthetized, intubated, placed on a respirator, and their lungs were instilled with ca. 4.5 ml/kg of perflubron. […] Control animals were injected IM with a similar dose of insulin (Humulin R).

The nature of data set [3]: Plasma insulin pharmacokinetics after LDI or IM administration (radioimmunoassay). Format: in vivo. The conditions noted are these: fasting rabbits.
Data set [4] in a line: Gentamicin biodistribution in lung lobes by immunoassay. Format: in vivo, New Zealand white rabbits. The conditions noted are these: rabbits; 5 mg/kg; one hour post-administration. The text has this:
Individual lobes of the lungs were collected and analyzed quantitatively for gentamicin by an immunoassay method. […] Excellent biodistribution across the lung lobes was observed following either IM or LDI administration.

For `CC1(C)S[C@@H]2[C@H](NC(=O)[C@H](N)c3ccccc3)C(=O)N2[C@H]1C(=O)O` [Ampicillin], in data set [1], the “local lung concentrations with LDI delivery relative to IM” value turned out to be 250 times higher, the “persistence of local lung concentrations with LDI delivery” value is “persisted for several days” and the “persistence of serum levels following LDI administration” value was “at least 4 hours”. The “serum ampicillin levels following IM administration” value in data set [1] (2 h) is reported as “undetectable”. In addition, the “animals surviving to 10 days” value in the data set on Streptococcus pneumoniae was 27%.

Regarding `CCCCCCCCCCCCCC(=O)OC[C@H](COP(=O)([O-])OCC[N+](C)(C)C)OC(=O)CCCCCCCCCCCCC` [DMPC, dimyristoylphosphatidylcholine], the equilibrium surface tension result in data set [2] is “ca. 22 mN/m”.

With Human Insulin, the Serum glucose level with serum glucose (IM Humulin R, 0 min) came to 184.2 mg/dL; with serum glucose (IM Humulin R, 5 min), 253.6 mg/dL; in the data set on serum glucose (IM Humulin R, 10 min) it was 256.0 mg/dL; with serum glucose (IM Humulin R, 15 min), 216.8 mg/dL; with serum glucose (IM Humulin R, 30 min) it was 168.2 mg/dL; in the data set with serum glucose (IM Humulin R, 60 min) it was 82.0 mg/dL. Also, the Serum glucose level turned out to be 48.2 mg/dL in the data set with serum glucose (IM Humulin R, 90 min); 18.0 mg/dL with serum glucose (IM Humulin R, 120 min); 29.4 mg/dL in the data set with serum glucose (IM Humulin R, 150 min); 28.8 mg/dL in the data set with serum glucose (IM Humulin R, 180 min); 29.4 mg/dL with serum glucose (IM Humulin R, 240 min); 115.8 mg/dL in the data set on serum glucose (IM Humulin R, 360 min). Besides, the Serum glucose level is 175.7 mg/dL with serum glucose (LDI Example XI formulation in perflubron, 0.86 IU/kg, 0 min); 218.8 mg/dL with serum glucose (LDI Example XI formulation in perflubron, 0.86 IU/kg, 5 min); 211.7 mg/dL in the data set with serum glucose (LDI Example XI formulation in perflubron, 0.86 IU/kg, 10 min); 198.2 mg/dL in the data set on serum glucose (LDI Example XI formulation in perflubron, 0.86 IU/kg, 15 min); 143.3 mg/dL in the data set on serum glucose (LDI Example XI formulation in perflubron, 0.86 IU/kg, 30 min); 83.2 mg/dL in the data set on serum glucose (LDI Example XI formulation in perflubron, 0.86 IU/kg, 60 min). For the same compound, the Serum glucose level came out at 38.2 mg/dL with serum glucose (LDI Example XI formulation in perflubron, 0.86 IU/kg, 90 min); 31.2 mg/dL with serum glucose (LDI Example XI formulation in perflubron, 0.86 IU/kg, 120 min); 31.7 mg/dL with serum glucose (LDI Example XI formulation in perflubron, 0.86 IU/kg, 150 min); 33.4 mg/dL in the data set with serum glucose (LDI Example XI formulation in perflubron, 0.86 IU/kg, 180 min); 49.2 mg/dL with serum glucose (LDI Example XI formulation in perflubron, 0.86 IU/kg, 240 min). For the same compound, the Cmax in data set [3] (IM, Humulin R, dose similar to 0.86 IU/kg, plasma insulin) is listed as 110.5 μU/ml; in data set [3] (LDI (4.5 ml/kg perflubron), Example XI formulation, 0.86 IU/kg, plasma insulin), 210.4 μU/ml. The AUC in data set [3] (IM, Humulin R, plasma insulin) is given as 20770 μU min/ml; in data set [3] (LDI (4.5 ml/kg perflubron), Example XI formulation, 0.86 IU/kg) it was 11100 μU min/ml. Also, the Tmax in data set [3] (IM, Humulin R, plasma insulin) was 1 h.

Take gentamicin: the “lung gentamicin concentrations following LDI relative to IM” value in data set [4] is “ca. 2 orders of magnitude higher”.

Values taken from US7205343B2, “Stabilized bioactive preparations and method of use” (priority 1997, dated 2007).
